Test results published in ChEMBL document CHEMBL1122084, “Relative affinity of 17 alpha- and/or 21-esters and 17 alpha, 21-diesters of cortisol for a glucocorticoid receptor from rat thymocytes” (J Med Chem, 1982).

biological target: T1, Glucocorticoid receptor (Rattus norvegicus) (UniProt P06536); experiment: Relative binding affinity for glucocorticoid receptor of rat thymus cytosol by displacement of [3H]dexamethasone
T1 sequence (whole entry): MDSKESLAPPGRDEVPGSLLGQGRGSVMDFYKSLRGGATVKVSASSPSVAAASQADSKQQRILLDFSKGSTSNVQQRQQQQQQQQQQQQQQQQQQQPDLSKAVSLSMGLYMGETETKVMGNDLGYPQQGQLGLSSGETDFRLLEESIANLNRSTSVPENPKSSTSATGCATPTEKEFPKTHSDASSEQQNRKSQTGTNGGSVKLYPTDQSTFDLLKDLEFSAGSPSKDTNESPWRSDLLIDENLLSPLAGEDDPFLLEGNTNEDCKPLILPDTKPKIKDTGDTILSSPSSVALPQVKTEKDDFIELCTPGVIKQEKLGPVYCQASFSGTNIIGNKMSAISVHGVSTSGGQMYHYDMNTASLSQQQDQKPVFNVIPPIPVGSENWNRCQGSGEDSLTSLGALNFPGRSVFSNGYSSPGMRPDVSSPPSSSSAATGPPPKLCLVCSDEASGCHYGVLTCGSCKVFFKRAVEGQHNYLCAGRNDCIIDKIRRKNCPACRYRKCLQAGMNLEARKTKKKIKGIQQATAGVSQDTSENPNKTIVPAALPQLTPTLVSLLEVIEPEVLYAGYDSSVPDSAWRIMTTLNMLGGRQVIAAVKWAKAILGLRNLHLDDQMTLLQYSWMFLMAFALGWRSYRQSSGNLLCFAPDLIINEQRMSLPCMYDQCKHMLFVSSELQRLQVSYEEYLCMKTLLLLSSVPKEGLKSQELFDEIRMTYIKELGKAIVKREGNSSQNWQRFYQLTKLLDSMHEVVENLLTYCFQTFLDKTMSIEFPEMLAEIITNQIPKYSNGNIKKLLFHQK

Relative binding affinity | Structure (SMILES)
1 | C[C@]12CCC(=O)C=C1CC[C@@H]1[C@@H]2[C@@H](O)C[C@@]2(C)[C@H]1CC[C@]2(O)C(=O)CO

biological target: T1, Glucocorticoid receptor (Rattus norvegicus); experiment: Relative binding affinity for glucocorticoid receptor of rat thymus cytosol by displacement of [3H]dexamethasone compared to cortisol

Relative binding affinity | Structure (SMILES)
0.036 | CC(=O)OCC(=O)[C@@]1(OC(C)=O)CCC2C3CCC4=CC(=O)CCC4(C)C3C(O)CC21C (stereo partly drawn)
0.093 | CCC(=O)OCC(=O)[C@@]1(OC(C)=O)CCC2C3CCC4=CC(=O)CCC4(C)C3C(O)CC21C (stereo partly drawn)
1.17 | CCCCC(=O)O[C@]1(C(=O)COC(=O)CC)CCC2C3CCC4=CC(=O)CCC4(C)C3C(O)CC21C (stereo partly drawn)
0.152 | CCCC(=O)OCC(=O)[C@@]1(OC(C)=O)CCC2C3CCC4=CC(=O)CCC4(C)C3C(O)CC21C (stereo partly drawn)
0.272 | CCCCC(=O)OCC(=O)[C@@]1(OC(C)=O)CCC2C3CCC4=CC(=O)CCC4(C)C3C(O)CC21C (stereo partly drawn)

Continued, compound first:

Structure (SMILES) | Relative binding affinity
CC(=O)OCC(=O)[C@@]1(O)CC[C@H]2[C@@H]3CCC4=CC(=O)CC[C@]4(C)[C@H]3[C@@H](O)C[C@@]21C | 0.046
CC(=O)O[C@]1(C(=O)CO)CCC2C3CCC4=CC(=O)CCC4(C)C3C(O)CC21C (stereo partly drawn) | 1.14
CCCCC(=O)O[C@]1(C(=O)CO)CCC2C3CCC4=CC(=O)CCC4(C)C3C(O)CC21C (stereo partly drawn) | 11.5
CCCCC(=O)OCC(=O)[C@@]1(O)CCC2C3CCC4=CC(=O)CCC4(C)C3C(O)CC21C (stereo partly drawn) | 0.32
CCCCC(=O)O[C@]1(C(=O)COC(=O)CCC)CCC2C3CCC4=CC(=O)CCC4(C)C3C(O)CC21C (stereo partly drawn) | 1.33
CCCC(=O)O[C@]1(C(=O)CO)CC[C@H]2[C@@H]3CCC4=CC(=O)CC[C@]4(C)[C@H]3[C@@H](O)C[C@@]21C | 12.4
CCCCC(=O)O[C@]1(C(=O)COC(C)=O)CCC2C3CCC4=CC(=O)CCC4(C)C3C(O)CC21C (stereo partly drawn) | 0.76
